The results in this text go back to patent US7960584B2, “Compounds, isomer thereof, or pharmaceutically acceptable salts thereof as vanilloid receptor antagonist; and pharmaceutical compositions containing the same” (Amorepacific Corporation, priority 2005, dated 2011).

For one data set, the target named is T1, vanilloid receptor (Rattus norvegicus, UniProt O35433).
T1 construct: DRG nerve cells from the primary culture of 2 days were equilibrated; endogenous in cells; host or cells: primary culture of dorsal root ganglion neurons from neonatal SD rats
As to the kind of experiment: 45Ca influx test in primary cultured DRG neurons (capsaicin-induced calcium uptake). It is filed as cell-based. The following applies: neonatal SD rat DRG neurons; capsaicin 0.5 μM; 45Ca 10 μCi/ml; 10 min at room temperature. On the procedure:
1) Separation of Spinal Dorsal Root Ganglia (DRG) in Newborn Rats and Primary Culture Thereof
Neonatal (2-3 day old or younger than 2-3 day old) SD rats were put in ice for 5 minutes to anesthetize and disinfected with 70% ethanol. DRG of all part of spinal cord were dissected (Wood et al., 1988, J. Neurosci. 8, pp 3208-3220) and collected in DME/F12 medium to which 1.2 g/l sodium bicarbonate, 50 mg/l gentamycin were added. The DRG were incubated sequentially at 37° C. for 30 min in 200 U/ml collagenase and 2.5 mg/ml trypsin, separately. The ganglia were washed twice with DME/F12 medium supplemented with 10% horse serum, triturated through a fire-polished Pasteur pipette, filtered through Nitex 80 membrane to obtain single cell suspension and the suspension was washed once more. This was subjected to centrifugation, then resuspended in cell culture medium at certain level of cell density. As the cell culture medium, DME/F12 medium supplemented with 10% horse serum was diluted with identical medium conditioned by C6 glioma cells 2 days on a confluent monolayer (1:1), and NGF (Nerve Growth Factor) was added to adjust 200 ng/ml as final concentration. After the cells were grown 2 days in medium where cytosine arabinoside (Ara-C, 100 μM) was added to kill dividing nonneuronal cells, medium was changed to one without Ara-C. The resuspended cells were plated at a density of 1500-2000 neurons/well onto Terasaki plates previously coated with 10 μg/ml poly-D-ornithine.
2) ^45Ca Influx Experiments
DRG nerve cells from the primary culture of 2 days were equilibrated by washing 4 times with HEPES (10 mM, pH 7.4)-buffered Ca^2+, Mg^2+-free HBSS (H-HBSS). The solution in each well was removed from the individual well. Medium containing the test compound plus capsaicin (final concentration 0.5 μM) and ^45Ca (final concentration 10 μCi/ml) in H-HBSS was added to each well and incubated at room temperature for 10 mins. Terasaki plates were washed five times with H-HBSS and dried at room temperature. To each well, 0.3% SDS (10 μl) was added to elute ^45Ca. After the addition of scintillation cocktail of into each well, the amount of ^45Ca influx into neuron was measured by counting radioactivity.

The subject of the next data set is Male ICR mice. As to the kind of experiment: Analgesic activity test: mouse writhing test induced with phenyl-p-quinone. It is filed as in vivo. The following applies: dose 1 mg/kg intraperitoneally 30 min before phenyl-p-quinone 4.5 mg/kg i.p.; writhes counted 6-12 min after. On the procedure: 2. Analgesic Activity Test: Mouse Writhing Test by Inducing with Phenyl-p-quinone
Male ICR mice (mean body weight 25 g) were maintained in a controlled lighting environment (12 h on/12 h off) for experiment. Animals received an intraperitoneal injection of 0.3 ml of the chemical irritant phenyl-p-quinone (dissolved in saline containing 5% ethanol to be a dose of 4.5 mg/kg) and 6 mins later, the number of abdominal constrictions was counted in the subsequent 6 mins period. Animals (10 animals/group) received 0.2 ml of test compounds solution in vehicle of ethanol/Tween 80/saline (10/10/80) intraperitoneally 30 min before the injection of phenyl-p-quinone. A reduction in the number of writhes responding to the test drug compound relative to the number responding in saline control group was considered to be indicative of an analgesic effect. Analgesic effect was calculated by % inhibition equation (% inhibition=(C−T)/C×100), wherein C and T represent the number of writhes in control and compound-treated group, respectively (Table 2).

Broadly, the IC50 is the concentration that inhibits the measured activity by half. A word on the melting point: it is the temperature of the solid-liquid transition.

T1 sequence (O35433 whole entry): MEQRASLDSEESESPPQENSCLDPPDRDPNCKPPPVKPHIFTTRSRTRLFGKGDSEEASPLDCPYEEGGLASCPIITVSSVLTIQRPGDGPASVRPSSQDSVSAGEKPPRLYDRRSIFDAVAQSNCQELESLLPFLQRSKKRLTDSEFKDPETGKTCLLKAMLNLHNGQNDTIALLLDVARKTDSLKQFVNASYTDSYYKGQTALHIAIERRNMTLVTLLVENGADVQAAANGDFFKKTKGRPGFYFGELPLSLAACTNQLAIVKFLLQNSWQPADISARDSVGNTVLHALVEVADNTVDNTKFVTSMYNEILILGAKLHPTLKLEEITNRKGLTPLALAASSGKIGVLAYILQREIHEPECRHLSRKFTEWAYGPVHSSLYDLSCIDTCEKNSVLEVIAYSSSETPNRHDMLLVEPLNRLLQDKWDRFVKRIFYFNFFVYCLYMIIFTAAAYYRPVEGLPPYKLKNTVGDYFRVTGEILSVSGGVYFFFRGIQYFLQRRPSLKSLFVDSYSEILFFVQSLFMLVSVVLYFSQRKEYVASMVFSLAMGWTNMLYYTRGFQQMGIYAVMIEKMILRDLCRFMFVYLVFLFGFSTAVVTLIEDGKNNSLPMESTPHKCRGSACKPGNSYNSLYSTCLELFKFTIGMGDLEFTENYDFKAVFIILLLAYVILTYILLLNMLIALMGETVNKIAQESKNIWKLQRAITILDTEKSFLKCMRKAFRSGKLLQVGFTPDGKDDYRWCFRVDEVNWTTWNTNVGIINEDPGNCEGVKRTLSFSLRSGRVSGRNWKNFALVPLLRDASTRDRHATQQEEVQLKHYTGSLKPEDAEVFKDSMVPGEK

For the compound `CC(C)(C)c1ccc(/C=C/C(=O)NCc2ccc(NS(C)(=O)=O)c(Cl)c2)cc1` [Example 2, 3-(4-t-Butyl-phenyl)-N-(3-chloro-4-methanesulfonylamino-benzyl)-acrylamide], the IC50 on vanilloid receptor was found to be 0.26 µM. With `Cc1cc(CNC(=O)/C=C/c2ccc(C(C)(C)C)cc2)ccc1NS(C)(=O)=O` [Example 3, 3-(4-t-Butyl-phenyl)-N-(3-methyl-4-methanesulfonylamino-benzyl)-acrylamide], the IC50 at vanilloid receptor came out at 0.29 µM.

Regarding `CC(C)(C)c1ccc(/C=C/C(=O)NCc2cc(F)c(NS(C)(=O)=O)c(F)c2)cc1` [Example 4, 3-(4-t-Butyl-phenyl)-N-(3,5-difluoro-4-methanesulfonylamino-benzyl)-acrylamide], the IC50 on vanilloid receptor came out at 0.31 µM. On the same count and under the same terms, the figure for `CC(C)(C)c1ccc(/C=C/C(=O)NCc2cc(F)c(NS(C)(=O)=O)cc2F)cc1` [Example 5, 3-(4-t-Butyl-phenyl)-N-(2,5-difluoro-4-methanesulfonylamino-benzyl)-acrylamide] is 0.21 µM; for `CC(C)(C)c1ccc(/C=C/C(=O)NCc2cc(Cl)c(NS(C)(=O)=O)c(I)c2)cc1` [Example 6, 3-(4-t-Butylphenyl)-N-(3-chloro-5-iodo-4-methanesulfonylamino-benzyl)acrylamide] it is 0.35 µM. Take `Cc1cc(CNC(=O)/C=C/c2ccc(C(C)(C)C)cc2)cc(Cl)c1NS(C)(=O)=O` [Example 7, 3-(4-t-Butyl-phenyl)-N-(3-chloro-4-methanesulfonylamino-5-methylbenzyl)acrylamide]: the 50% inhibitory concentration (IC50) at vanilloid receptor was determined as 0.36 µM. Turning to `CC(C)(C)c1ccc(/C=C/C(=O)NCc2cc(F)c(NS(C)(=O)=O)c(I)c2)cc1` [Example 8, 3-(4-t-butylphenyl)-N-(3-fluoro-5-iodo-4-methanesulfonylaminobenzyl)acrylamide], at vanilloid receptor, the IC50 is 0.18 µM.

As for `Cc1cc(CNC(=O)/C=C/c2ccc(C(C)(C)C)cc2)cc(F)c1NS(C)(=O)=O` [Example 9, 3-(4-t-Butyl-phenyl)-N-(3-fluoro-4-methanesulfonylamino-5-methyl-benzyl)-acrylamide], the IC50 on vanilloid receptor was 0.36 µM.

For `C/C(=C\c1ccc(C(C)(C)C)cc1)C(=O)NCc1ccc(NS(C)(=O)=O)cc1` [Example 10, 3-(4-t-butylphenyl)-N-(4-methanesulfonylaminobenzyl)-2-methyl-acrylamide], the IC50 on vanilloid receptor was 0.44 µM. With `C/C(=C\c1ccc(C(C)(C)C)cc1)C(=O)N[C@H](C)c1ccc(NS(C)(=O)=O)cc1` [Example 11, 3-(4-t-Butylphenyl)-N-[1-(R)-(4-methanesulfonylaminophenyl)ethyl]-2-methylacrylamide], the “Analgesic effect (% Inhibition)” value in the data set with Male ICR mice came to 56 % Inhibition. Besides, the IC50 at vanilloid receptor amounted to 0.046 µM.

With `C/C(=C\c1ccc(C(C)(C)C)cc1)C(=O)NCc1ccc(NS(C)(=O)=O)c(F)c1` [Example 12, 3-(4-t-Butylphenyl)-N-(3-fluoro-4-methanesulfonylaminobenzyl)-2-methylacrylamide], at vanilloid receptor, the IC50 was determined as 0.12 µM. Regarding `C/C(=C\C(=O)NCc1ccc(NS(C)(=O)=O)c(F)c1)c1ccc(C(C)(C)C)cc1` [Example 13, 3-(4-t-Butyl-phenyl)-but-2-enoic acid 3-fluoro-4-methanesulfonylamino-benzylamide], the half-maximal inhibitory concentration (IC50) at vanilloid receptor turned out to be 0.15 µM. As for `C/C(=C\c1ccc(C(C)(C)C)cc1)C(=O)N[C@H](C)c1ccc(NS(C)(=O)=O)c(F)c1` [Example 14, 3-(4-t-Butyl-phenyl)-N-[1-(3-fluoro-4-methanesulfonylaminophenyl)ethyl]-2-methylacrylamide], the “Analgesic effect (% Inhibition)” value in the data set with Male ICR mice stood at 42 % Inhibition. For the same compound, the IC50 at vanilloid receptor was 0.041 µM. With `CC(C)(C)c1ccc(C#CC(=O)NCc2ccc(NS(C)(=O)=O)cc2)cc1` [Example 15, 3-(4-t-butylphenyl)-N-[4-(methanesulfonylamino)benzyl]propiolicamide], on vanilloid receptor, the IC50 is 0.59 µM. For `C[C@@H](NC(=O)C#Cc1ccc(C(C)(C)C)cc1)c1ccc(NS(C)(=O)=O)cc1` [Example 16, 3-(4-t-butylphenyl)-N-[1-(R)-(4-methanesulfonylaminophenyl)ethyl]propiolicamide], the IC50 on vanilloid receptor was found to be 0.1 µM.

Consider `CC(C)(C)c1ccc(CNC(=O)NCc2cc(F)c(NS(C)(=O)=O)c(I)c2)cc1` [Example 17, N-{4-[3-(4-t-butylbenzyl)ureidomethyl]-2-fluoro-6-iodophenyl}methanesulfonamide], for which the IC50 on vanilloid receptor was determined as 0.29 µM.

Take `CC(C)(C)c1ccc(CNC(=O)NCc2cc(I)c(NS(C)(=O)=O)cc2Cl)cc1` [Example 18, N-{4-[3-(4-t-butylbenzyl)ureidomethyl]-5-chloro-2-Iodophenyl}methanesulfonamide]: on vanilloid receptor, the IC50 was found to be 0.53 µM.

On to `CCc1cc(CNC(=O)NCc2ccc(C(C)(C)C)cc2)cc(F)c1NS(C)(=O)=O` [Example 19, N-{4-[3-(4-t-butylbenzyl)ureidomethyl]-2-ethyl-6-fluorophenyl}methanesulfonamide], for which the 50% inhibitory concentration (IC50) on vanilloid receptor worked out at 0.15 µM. In the case of `CC(C)(C)c1ccc(CNC(=O)NCc2ccc(NS(C)(=O)=O)c(F)c2)cc1` [Example 20, N-{4-[3-(4-t-butylbenzyl)ureidomethyl]-2-fluorophenyl}methanesulfonamide], in the data set with Male ICR mice, the “Analgesic effect (% Inhibition)” value was 82 % Inhibition. Take `Cc1cc(CNC(=O)NCc2ccc(C(C)(C)C)cc2)ccc1NS(C)(=O)=O` [Example 21, N-{4-[3-(4-t-butylbenzyl)ureidomethyl]-2-methylphenyl}methane sulfonamide]: the “Analgesic effect (% Inhibition)” value in the data set on Male ICR mice is on record as 58 % Inhibition. The IC50 on vanilloid receptor came to 0.083 µM. `CC(C)(C)c1ccc(CNC(=O)NCc2ccc(NS(C)(=O)=O)c(Cl)c2)cc1` [Example 22, N-{4-[3-(4-t-butylbenzyl)ureidomethyl]-2-chlorophenyl}methane sulfonamide]: the melting point lay within 60 to 61 °C. The concentration for half-maximal inhibition (IC50) at vanilloid receptor stood at 0.24 µM. Regarding `CC(C)(C)c1ccc(CNC(=O)NCc2ccc(NS(C)(=O)=O)c([N+](=O)[O-])c2)cc1` [Example 23, N-{4-[3-(4-t-butylbenzyl)ureidomethyl]-2-nitrophenyl}methane sulfonamide], the IC50 on vanilloid receptor was determined as 0.24 µM.

Turning to `CC(C)(C)c1ccc(CNC(=O)NCc2ccc(NS(C)(=O)=O)c(I)c2)cc1` [Example 24, N-{4-[3-(4-t-Butyl-benzyl)-ureidomethyl]-2-iodo-phenyl}-methanesulfonamide], at vanilloid receptor, the IC50 stood at 0.39 µM. As to `CC(C)(C)c1ccc(CNC(=O)NCc2cc(F)c(NS(C)(=O)=O)c(F)c2)cc1` [Example 25, N-{4-[3-(4-t-Butyl-benzyl)-ureidomethyl]-2,6-difluoro-phenyl}-methanesulfonamide], the IC50 at vanilloid receptor amounted to 0.47 µM. The same measure, in the same setting: the figure for `CC(C)(C)c1ccc(CNC(=O)NCc2cc(F)c(NS(C)(=O)=O)cc2F)cc1` [Example 26, N-{4-[3-(4-t-Butyl-benzyl)-ureidomethyl]-2,5-difluoro-phenyl}-methanesulfonamide] is 0.56 µM; for `Cc1cc(CNC(=O)NCc2ccc(C(C)(C)C)cc2)cc(Cl)c1NS(C)(=O)=O` [Example 27, N-{4-[3-(4-t-Butylbenzyl)ureidomethyl]-2-chloro-6-methylphenyl}methanesulfonamide] it is 0.19 µM; for `CCc1cc(CNC(=O)NCc2ccc(C(C)(C)C)cc2)c(Cl)cc1NS(C)(=O)=O` [Example 28, N-{4-[3-(4-t-Butylbenzyl)-ureidomethyl]-5-chloro-2-ethylphenyl}methanesulfonamide] it is 0.29 µM. For the compound `Cc1cc(CNC(=O)NCc2ccc(C(C)(C)C)cc2)cc(F)c1NS(C)(=O)=O` [Example 29, N-{4-[3-(4-t-Butyl-benzyl)-ureidomethyl]-2-fluoro-6-methyl-phenyl}-methanesulfonamide], the “Analgesic effect (% Inhibition)” value in the data set on Male ICR mice is recorded as 54 % Inhibition. In addition, the IC50 at vanilloid receptor stood at 0.073 µM.
